Measurements as given in patent US5989198A, “Use of capillary electrophoresis to determine glomerular filtration rate using iothalamate” (Mayo Foundation for Medical Education and Research, priority 1997, dated 1999).
Read-outs that look alike come from different tables or passages of the source.

What was measured:
[1] = GFR by capillary electrophoresis of non-isotopic (cold) iothalamate meglumine, timed urine and average of 2 plasma samples after subcutaneous injection; format: in vivo, human; settings: for mean GFR: capillary electrophoresis
Protocol: Prior to the test, patients were given 3 drops of a saturated solution of potassium iodide in 20 mis of water to prevent thyroid uptake of the small amount of free ^125 I-iothalamate and to protect patients from radiation exposure to the thyroid. They were also given a single subcutaneous injection of 0.5 mls of iothalamate meglumine (Conray®) (300 mg) diluted 1:1 with distilled water. Patients who professed an allergy to iodine were not included in this study, nor were patients who had been given an angiographic dye in the previous 24 hours.
On the day of the appointment, the patient ate nothing for 4 hours preceding the test (diabetics 2 hours) and drank 4 glasses of water in the hour preceding the test. They were also instructed not to void within 45 minutes of their appointment time. Patients were given oral hydration of 200 mls/per hour throughout the test.
Prior to injection, urine (U0) and blood plasma (P0) samples were obtained to assess for drug interferences. After subcutaneous injection of the two different GFR markers, a 45-minute equilibration period allowed blood levels to peak and become stable or fall as previously described for 125I subcutaneous iothalamate clearances by N. T. Ott et al., Mayo Clin. Proc., 50, 664 (1975), for ^125 I-iothalamate. This sampling method was adapted from studies reported by Israelit et al. for ^125 I-iothalamate, in Kid. […] After the 45 minute equilibration period, 7 ml of blood (P1) and a urine sample (UE) were collected and time (T0) was recorded. […] Bladder emptying was assessed by monitoring with a Diagnostic Ultrasound bladder scanner (Model No. 2500). […]
The patient was moved to a waiting room and returned to the laboratory after 45 to 60 minutes when the urge to void became apparent. Second blood (P2) and urine (U1) samples were collected, urine volume was recorded, and bladder emptying monitored. Adequacy of the test was confirmed if the bladder was empty (<10 ml or <10% of voided volume on scanner readout), and a minimum of 100 mls of urine was voided during the test. The timed urine (U1) and bloods (P1 and P2) were analyzed by CE. […]

[2] = urine diluted with 5 mM borate; cited from earlier work
[3] = cited from earlier work

| mean GFR ([1]; initial patient group, before vortexing of ultrafiltrate) | range of GFR's over which CE and isotope methods correlated ([1]; initial patients (one hundred), s.c. injection) | mean GFR ([1]; second group of 31 patients, ultrafiltrate vortexed) | Compound | sample stability, refrigerated [2] | GFR - Range of Normal ([3]; AGE 18-22) | GFR - Range of Normal ([3]; AGE 23-27) | GFR - Range of Normal ([3]; AGE 28-32) | GFR - Range of Normal ([3]; AGE 33-37) | GFR - Range of Normal ([3]; AGE 38-42) | GFR - Range of Normal ([3]; AGE 43-47) | GFR - Range of Normal ([3]; AGE 48-52) | GFR - Range of Normal ([3]; AGE 53-57) | GFR - Range of Normal ([3]; AGE 58-62) | GFR - Range of Normal ([3]; AGE >62) |
| --- | --- | --- | --- | --- | --- | --- | --- | --- | --- | --- | --- | --- | --- | --- |
| 58 mls/min/1.73 M^2 | 9-103 mls/min/1.73 M^2 | 62 mls/min | CNC(=O)c1c(I)c(NC(C)=O)c(I)c(C(=O)O)c1I [iothalamate meglumine, 1-deoxy-1-(methylamino)-D-glucitol-5-acetamido-2,4,6,-triiodo-N-methylisophthalamate] |  |  |  |  |  |  |  |  |  |  |  |
|  |  |  | CNC(=O)c1c(I)c(NC(C)=O)c(I)c(C(=O)O)c1I [Iothalamate] | at least 2 weeks | > 90 ml/min/1.73 m^2 | > 88 ml/min/1.73 m^2 | > 86 ml/min/1.73 m^2 | > 84 ml/min/1.73 m^2 | > 82 ml/min/1.73 m^2 | > 80 ml/min/1.73 m^2 | > 78 ml/min/1.73 m^2 | > 75 ml/min/1.73 m^2 | > 73 ml/min/1.73 m^2 | > 70 ml/min/1.73 m^2 |
